Patent publication US7833964B2, “Methods of reducing visceral fat by increasing levels of insulin-like growth factor-I (IGF-I)” (Tercica, Inc., priority 2003, dated 2010)
Values joined by “and” are separate entries in the source; they are usually repeats but may differ in a detail not shown here. Equal values may be shown once. Blank lines part the entries; values can stand above or below the molecule they belong to.

What was measured:
Format in all cases: in vivo, human
[1] = tested on: hemoglobin A1c (HbA1c); assay: Glucose control: change from baseline in HbA1c, double-blind placebo-controlled study in type II DM; settings: for Hemoglobin A1c Endpoint Change % from baseline, Mean (SD): last available measurement carried forward; for Hemoglobin A1c Change % from baseline, Week 4, Mean (SD): type II DM subjects
Procedure: Accordingly, subjects with type II DM were treated with a combination of rhIGF-I and glyburide, or with rhIGF-I or glyburide alone, to ascertain the potential benefits of the addition of rh1GF-I to glyburide therapy on glycemic control, incidence of hypoglycemia, and weight gain. […] The use of any additional orally administered drug or insulin to treat hyperglycemia during the pretreatment and treatment periods was prohibited. […] Randomization was stratified by gender, by prior oral […] agent therapy, and by HbA1c level at day 14.

[2] = ETDRS retinopathy score by fundus photography
Procedure: Because concern existed regarding the effects of rhIGF-I on two types of ocular findings—progression of diabetic retinopathy and optic disc swelling—the occurrence of such findings was recorded as a measure of safety. An ophthalmologic visit for dilated funduscopic examination was performed during the screening period. Additionally, fundus photography was performed on each subject prior to initiation of treatment with rhIGF-I or placebo between day 7 and day 1. When optic disc swelling was detected on the initial baseline photograph, the subject was terminated from the study immediately. If the baseline photograph was scored at an Early Treatment Diabetic Retinopathy Study (ETDRS) scale of greater than 35 in either eye, the subject was also not allowed to progress further in the study.
Both the ophthalmologic examination and fundus photography were repeated at the completion of the treatment period or at the early termination visit in the event of premature termination. The ophthalmologic exam was performed within 3 days of the fundus photography. In the event that optic disc swelling was detected on the fundus photograph obtained at the week 12 or early termination visits, subjects were asked to return for repeat fundus photography at 1-3 months following discontinuation from the study, and again at 3-month intervals until the optic disc swelling resolved.
Fundus photographs, obtained for each subject at week 12 or at the early termination visit, were compared with the photographs obtained prior to treatment in order to evaluate the development of retinopathy during the course of the study. The photographs for each eye were graded using the final version of the ETDRS scale. The resulting scores for each eye were combined to yield the ETDRS person score. A change between day 1 and week 12 (or early termination) in the full scale ETDRS person score of three or more levels (5 units) was recorded as a progression of retinopathy and as an adverse event.
A change in ETDRS level was the maximum difference between baseline and on-study or post-treatment values. A negative change indicated improvement.

[3] = Change in body weight; settings: for Weight Change (SE) Week 12: change from Day 1
Description: The efficacy endpoints were the change in glucose control as assessed by the change from baseline (day 1 to week 12) in hemoglobin A1c (HbA1c) levels, and changes from baseline (day 1 to week 12) in fasting blood glucose (BG), body weight, and visceral and mid-thigh fat.
The primary efficacy variable for the assessment of treatment effect on glucose control at Week 12 was the change from baseline (day 1) in HbA1c levels. Secondary efficacy variables assessing glucose control at Week 12 were the change from baseline (day 1) for each of the following: fasting blood glucose concentration, weight, and visceral and mid-thigh fat.
Secondary efficacy variables assessing glucose control at Week 12 were the change from baseline (Day 1) for each of the following: weight, and visceral and mid-thigh fat.

[4] = Change in BMI; settings: for BMI Change (SE) Wk 14: 2 weeks after treatment stopped
Description: The degree of obesity in humans is commonly assessed by calculating the body mass index or BMI. The BMI is essentially correcting body weight for height. Obviously a very tall person will likely weigh more than a person with short stature so this correction for height makes BMI a better gauge of the degree of obesity than uncorrected body weight. Table 6 gives the BMI data for the subjects treated with IGF-I. At baseline the subjects had average BMIs of over 30. Overweight is defined as a BMI of over 25 and obesity is defined as a BMI of over 30. […] Treatment with IGF-I reduced BMI and this effect was maintained until week 14, which was 2 weeks after treatment with IGF-I was stopped. In subjects treated with 20 micrograms of IGF-I, BMI fell by 1.0 kg/m^2 at 12 weeks and 0.9 kg/m^2 at week 14. This effect of IGF-I on BMI was highly statistically significant versus glyburide at week 12 (p=0.019) and week 14 (p=0.0064). Therefore IGF-I had the ability to reduce BMI or directly affect the most widely accepted measure of obesity. […] This greater effect of low dose IGF-I was unexpected.

[5] = glyburide 10 mg BID + rhIGF-I placebo
[6] = glyburide 10 mg BID + rhIGF-I placebo (n = 29)
[7] = rhIGF-I 20 μg/kg BID SC, with glyburide 10 mg BID or glyburide placebo per label
[8] = rhIGF-I 40 μg/kg BID SC, with glyburide 10 mg BID or glyburide placebo per label
[9] = IGF-I 20 μg/kg BID, with glyburide (n = 36) or glyburide placebo (n = 35)
[10] = IGF-I 40 μg/kg BID, with glyburide (n = 36) or glyburide placebo (n = 33)
[11] = IGF-I 20 μg/kg BID, with glyburide or glyburide placebo per label
[12] = IGF-I 40 μg/kg BID, with glyburide or glyburide placebo per label
[13] = subjects treated with 20 micrograms of IGF-I

subjects showing an improvement in retinal score ([2]; Placebo/glyburide group): one | Change in ETDRS levels: 1- to 2-step Progression [2, 6]: 8 (28) n (%) | Change in ETDRS levels: No change [2, 6]: 19 (66) n (%) | Change in ETDRS levels: −1- to −2-step progression (negative change = improvement) [2, 6]: 1 (3) n (%) | Change in ETDRS levels: ≧3-step progression [2, 6]: 1 (3) n (%)
Molecule: COc1ccc(Cl)cc1C(=O)NCCc1ccc(S(=O)(=O)NC(=O)NC2CCCCC2)cc1 [Glyburide, glyburide, reference compound]
Hemoglobin A1c Change % from baseline, Week 8, Mean (SD) [1, 5]: 0.05 (0.7) % | Hemoglobin A1c Change % from baseline, Week 12, Mean (SD) [1, 5]: 0.32% and 0.32 (0.7) % | Hemoglobin A1c Endpoint Change % from baseline, Mean (SD) [1, 5]: 0.12 (0.8) % | Hemoglobin A1c Change % from baseline, Week 4, Mean (SD) [1, 5]: −0.13 (0.5) % | Weight Change (SE) Week 12 [3, 5]: −0.1 (0.5) kg | BMI Change (SE) Wk 12 [4, 5]: 0.0 (0.2) kg/m^2 | BMI Change (SE) Wk 14 [4, 5]: 0.0 (0.3) kg/m^2 | BMI Change (SE) Wk 8 ([4]; glyburide 10 mg BID + rhIGF-I placebo, change from Day 1): −0.1 (0.1) kg/m^2

Molecule: IGF-I: recombinant human insulin-like growth factor-I from Genentech; sterile benzyl alcohol-preserved solution, 70 mg in 7 mL acetate/NaCl, pH 5.4; given SC
Hemoglobin A1c Change % from baseline, Week 8, Mean (SD) [1, 7]: −0.29 (0.8) % | Hemoglobin A1c Change % from baseline, Week 12, Mean (SD) [1, 7]: 0.13 (1.2) % | Hemoglobin A1c Change % from baseline, Week 4, Mean (SD) [1, 7]: −0.10 (0.6) % | Hemoglobin A1c Endpoint Change % from baseline, Mean (SD) ([1]; rhIGF-I 20 μg/kg BID SC, with glyburide 10 mg BID or placebo per label): 0.04 (0.9) % | Hemoglobin A1c Change % from baseline, Week 8, Mean (SD) [1, 8]: −0.47 (0.9) % | Hemoglobin A1c Change % from baseline, Week 12, Mean (SD) [1, 8]: −0.58% and −0.58 (1.2) % | Hemoglobin A1c Change % from baseline, Week 4, Mean (SD) [1, 8]: −0.37 (0.5) % | Hemoglobin A1c Endpoint Change % from baseline, Mean (SD) ([1]; rhIGF-I 40 μg/kg BID SC, with glyburide 10 mg BID or placebo per label): −0.30 (0.8) % | Change in ETDRS levels: 1- to 2-step Progression [2, 9]: 4 (11) n (%) | Change in ETDRS levels: No change [2, 9]: 24 (69) n (%) | Change in ETDRS levels: −1- to −2-step progression (negative change = improvement) [2, 9]: 6 (17) n (%) | Change in ETDRS levels: ≧3-step progression [2, 9]: 1 (3) n (%) | subjects showing an improvement in retinal score ([2]; IGF-I 20 μg/kg BID, with glyburide or placebo per label): 6 subjects | Change in ETDRS levels: 1- to 2-step Progression [2, 10]: 7 (21) n (%) | Change in ETDRS levels: No change [2, 10]: 20 (61) n (%) | Change in ETDRS levels: −1- to −2-step progression (negative change = improvement) [2, 10]: 5 (15) n (%) | Change in ETDRS levels: ≧3-step progression [2, 10]: 0 n (%) | subjects showing an improvement in retinal score ([2]; IGF-I 40 μg/kg BID, with glyburide or placebo per label): 5 subjects | progression of retinopathy (increases in the ETDRS scores) ([2]; IGF-I 20 or 40 μg/kg BID, 12 weeks, type II DM subjects): did not cause a progression of retinopathy | Weight Change (SE) Week 12 [3, 11]: −2.8 (0.7) kg | Weight Change (SE) Week 12 [3, 12]: −0.6 (0.7) kg | weight lost on average, Week 12 ([3]; low dose IGF-I (20 μg/kg BID) alone): 2.8 kg | BMI Change (SE) Wk 8 [4, 11]: −0.5 (0.2) kg/m^2 | BMI Change (SE) Wk 12 [4, 11]: −1.0 (0.2) kg/m^2 | BMI Change (SE) Wk 14 [4, 11]: −0.9 (0.2) kg/m^2 | BMI Change (SE) Wk 8 [4, 12]: −0.1 (0.2) kg/m^2 | BMI Change (SE) Wk 12 [4, 12]: −0.2 (0.2) kg/m^2 | BMI Change (SE) Wk 14 [4, 12]: −0.6 (0.2) kg/m^2 | BMI fell by, at 12 weeks [4, 13]: 1.0 kg/m^2 | BMI fell by, at week 14 [4, 13]: 0.9 kg/m^2
